# Experimental data as given in patent publication US20230201166A1, “METHODS FOR TREATING CANCER BY INHIBITING CARM1” (DANA-FARBER CANCER INSTITUTE, INC., priority 2020, published 2023).
# What was measured:
# [1] = tested on: malignant melanoma cell lines; conditions: cited from earlier work
# [2] = tested on: CARM1 activity in tumor cells; test: CARM1 activity in tumor cells (me2BAF155 western blot); format: cell-based, human; conditions: sub-micromolar levels
# Experimental: BAF155 is a well-validated target of CARM1. […] Western blots were probed with Abs specific for di-methylated BAF155 protein (me2BAF155), total BAF155 protein and β-actin (loading control).
# Whole cell extracts were prepared by lysis and sonication of cells in RIPA buffer [20 mM Tris-HCl (pH 7.5), 150 mM NaCl, 1 mM EDTA, 1 mM EGTA, 1% NP-40, 1% sodium deoxycholate, 2.5 mM sodium pyrophosphate, 1 mM β-glycerophosphate, 1 mM Na3VO4, 1 μg/ml leupeptin] supplemented with Halt Protease and Phosphatase Inhibitor Cocktail (ThermoFisher). Protein concentrations were determined using a Bradford Protein Assay (Bio-Rad). Protein samples (20 […]g) were resolved by SDS-PAGE using 4-12% NuPAGE Novex Bis-Tris mini gels (ThermoFisher) and transferred onto a PVDF membrane (Bio-Rad). Blots were blocked in 5% Blocker powder (Bio-Rad), 0.2% Tween in PBS and then incubated overnight with primary antibodies. Following incubation with secondary detection reagents and subsequent washing, blots were incubated in Western Lightening Plus-ECL substrate (PerkinElmer). Luminescence was captured using a ChemiDoc MP system (Bio-Rad Laboratories).
# BT549 TNBC cells = test: T cell cytotoxicity assay, BT549 TNBC cells with NY-ESO-1 TCR human CD8 T cells; format: cell-based; conditions: pre-treatment 0.1 μM for 24 hours
# Experimental: FIG. 3L illustrates that inactivation of Carm1 gene in tumor cells elicits tumor immunity, showing T cell cytotoxicity assay with human BT549 TNBC and human CD8 T cells that expressed a NY-ESO-1 TCR. […] In FIGS. 3A-3L, two-way ANOVA was used to determine statistical significance for tumor measurements at time points when all mice were alive. Statistical significance for survival of mice in each treatment group were calculated by Log-rank (Mantel-Cox) test. Bar graphs represent data summarized as mean±S.E.M. and were analyzed by unpaired two-sided Mann-Whitney test. Data shown are representative of three experiments. *p<0.05, **p<0.01, ***p<0.001, ****p<0.0001, ns (non-significant).
# T cell cytotoxicity assay using human tumor cells was performed using NY-ESO-1 transduced human CD8 T cells and BT549 human triple negative breast cancer cells which were HLA-A02*01 positive and endogenously expressed the NY-ESO-1 antigen. BT549 cells were co-cultured with human CD8 T cells that expressed a NY-ESO-1 TCR at increasing effector to target (E:T) ratios for 12-72 hours. Cytotoxicity was quantified by flow cytometry. All in vitro cytotoxicity assays were performed in human or murine T cell media (without addition of IL-2).
# [3] = tested on: B16F10-OVA-ZsGreen tumor cells; test: T cell cytotoxicity assay, B16F10-OVA-ZsGreen tumor cells with OT-I CD8 T cells; format: cell-based, murine; conditions: pre-treatment 0.1 μM for 24 hours
# Description: FIG. 3K illustrates that inactivation of Carm1 gene in tumor cells elicits tumor immunity, showing sensitization of tumor cells to T cells with a CARM1 inhibitor. […] Vehicle or inhibitor treated tumor cells were co-cultured with OT-I CD8 T cells at indicated E:T ratios (n=7-8 replicates/condition).
# A Celigo image cytometer (Nexcelom) was used to study the killing of fluorescent tumor cells by CD8 T cells. Carm1-KO or control-KO B16-OVA-ZsGreen cells were washed with PBS, and 5,000 tumor cells were added per well in flat-bottom 96-well plates (8-10 replicates/group). OT-I CD8 T cells were added at different effector to target ratios. Following 24 or 48 hours of co-culture, the media was removed, and wells were washed with PBS to remove dead tumor cells and CD8 T cells. Live, adherent tumor cells were then counted using the Celigo image cytometer. As an alternative approach, apoptotic tumor cells were counted based on Caspase 3/7 activation. A Caspase-3/7 reagent (Essen Bioscience) was added directly to the culture media (0.5 μM final concentration) after 12, 24 or 48 hours of co-culture of tumor cells with T cells, and positive tumor cells were counted using the image cytometer.
# RPMI-8226 = conditions: immunodeficient mouse model; cited from earlier work
# [4] = tested on: SKBR3, MDA-MB-157 and MDA-MB-436 cells; test: RT-qPCR of ISGs in human tumor cells; format: cell-based; conditions: 2 μM, 7 days
# Experimental: RT-qPCR analysis of selected ISGs and IFNs in human SKBR3, MDA-MB-157 and MDA-MB-436 cells treated with vehicle or CARM1 inhibitor (2 μM) for 7 days (n=3/group).
# Total RNA was extracted using the RNeasy Mini Kit (Qiagen) according to the manufacturer's protocol. Extracted RNA (1 μg) was transcribed into cDNA using SuperScript IV VILO master mix with ezDNase enzyme according to the manufacturer's protocol (ThermoFisher). The cDNA samples were diluted and used for real-time quantitative PCR (RT-qPCR). Taqman master mix (ThermoFisher) and gene-specific primers were used for PCR amplification and detection using a QuantStudio 6 Flex Real-Time PCR System (ThermoFisher). The RT-qPCR data were normalized to GAPDH and HPRT (housekeeping genes) and presented as fold change of gene expression in the test sample compared to the control sample.
# [5] = Toxicity study in C57Bl/6 mice; conditions: 150 mg/kg twice daily, oral gavage, 14 days, versus solvent control
# Experimental: Sex and age matched C57Bl/6 mice were randomized into two groups treated twice daily with either CARM1 inhibitor (150 mg/kg) or vehicle via oral gavage for 14 days. Major organs including heart, spleen, kidney, liver, lung and small intestine were harvested for pathological assessment. […] Scale bar=50 μM.
# B16F10 tumors = test: B16F10 melanoma tumor model
# Experimental: B16F10 or MC38 tumor cells (2×10^5) were injected subcutaneously in 50 μL of PBS into syngeneic C57BL/6J mice. […] Mice receiving an isotype control mAb (Bio X Cell, clone HRPN #BE0088) at the same dose in PBS were used as controls.
# For checkpoint blockade experiments, tumor-bearing mice were administered with anti-CTLA4 mAb (clone 9H10, #BP0131, 100 μg/injection) or corresponding isotype control Ab (polyclonal Syrian hamster IgG, 100 μg/mouse). Alternatively, mice received anti-PD1 (clone 29F.1A12, #BE0273, 200 m/injection) or rat IgG2a isotype control Ab, anti-trinitrophenol (Clone: 2A3, 200 μg/injection) starting on day 7 post tumor inoculation and then every 3rd day.
# [6] = 150 mg/kg b.i.d. orally days 7-21, in combination with CTLA-4 mAb
smiles,measurement,setting,value
CNC[C@@H](O)COc1ccc(Cl)c(-c2nc(-c3c(C)noc3C)c(C)c(N3CC4(CCN(C(=O)OC)CC4)C3)n2)c1 (stereo in doubt) [EZM2302],"cell stasis, IC50",[1],nanomolar range
same,"inhibition of PABP1 and SMB methylation, IC50",[1],nanomolar range
same,suppression of CARM1 activity in tumor cells,[2],suppress CARM1 activity
same,CD8 T cell-mediated cytotoxicity,BT549 TNBC cells,enhanced CD8 T cell-mediated cytotoxicity
same,sensitization of tumor cells to CD8 T cells,[3],sensitized them to CD8 T cells
same,in vivo growth of RPMI-8226,RPMI-8226,moderately slow the in vivo growth
same,expression of ISGs in human breast and melanoma cancer cell lines,[4],induced the expression of a similar set of ISGs
same,histological changes in major organs,[5],no histological changes
same,weight loss,[5],no histological changes was observed in a comprehensive analysis of major organs or weight loss
same,sensitization of tumors to checkpoint blockade,B16F10 tumors; [6],sensitized B16F10 melanomas to checkpoint blockade with a CTLA-4 mAb
same,survival,B16F10 tumors; [6],significant survival benefit
same,B16F10 tumor growth,"B16F10 tumors; oral, 150 mg/kg/day, B16F10 tumor bearing mice",significantly suppresses B16F10 tumor growth
